Starred links: 1 amine or outer side, 2 acyl side, 3 side chain; linkers in the order of their positions; H or OH if unused. Non-standard residues stand in square brackets, D forms with d. Residues, ends and D or L forms follow the SMILES beside them. *: point of attachment. Exatecan = CC[C@@]1(O)C(=O)OCc2c1cc1n(c2=O)Cc2c-1nc1cc(F)c(C)c3c1c2[C@@H](N*)CC3; Dolaproine = CO[C@@H]([C@@H]1CCCN1)[C@@H](C)C(=O)O; Hexanoyl(6-maleimido) = O=C1C=CC(=O)N1CCCCCC(=O)*; Dil = CC[C@H](C)[C@H](NC)[C@@H](CC(=O)O)OC; NHCH2OCH2CO = O=C(COCN[*:1])[*:2]; X1 = C[C@@H](N*)[C@@H](O)c1ccccc1; NMeV = CN[C@H](C(=O)O)C(C)C
Test system: NCI-N87 cells
Test: Cytotoxicity assay (CellTiter-Glo)
Assay type: cell-based
Details: 6 days, max 50 nM
Protocol: When the confluence of cultured NCI-N87 cells reached 70-90%, the cells were digested with trypsin. The trypsin was removed by centrifugation. […] The plate was incubated in a 5% CO2 incubator at 37° C. for 6 days. After the incubation was completed, the cell viability was detected with CellTiter-Glo reagent (Promega, G7573), and the specific cell viability value was measured by a multifunctional microplate reader (PerkinElmer, EnVision).

In the case of `CC[C@@]1(O)C(=O)OCc2c1cc1n(c2=O)Cc2c-1nc1cc(F)c(C)c3c1c2[C@@H](NC(=O)COCNC(=O)CNC(=O)[C@H](Cc1ccccc1)NC(=O)CNC(=O)CNC(=O)CCCCCN1C(=O)C=CC1=O)CC3` [DS8201 scaffold, Deruxtecan] ({Hexanoyl(6-maleimido)}-GGFG[NHCH2OCH2CO]-Exatecan), the “Max Cytotoxicity %” value is reported as 9.38%.

With `CC[C@H](C)[C@@H]([C@@H](CC(=O)N1CCC[C@H]1[C@H](OC)[C@@H](C)C(=O)N[C@H](C)[C@@H](O)c1ccccc1)OC)N(C)C(=O)[C@@H](NC(=O)[C@@H](NC)C(C)C)C(C)C` [MMAE, monomethyl auristatin E] (H-[NMeV]V[Dil][Dolaproine]-X1) the IC50 was 0.13 nM and the “Max Cytotoxicity %” value was 93.50%.

`C=C1C[C@@H]2CC[C@@]34C[C@H]5O[C@H]6[C@@H](O3)[C@H]3O[C@H](CC[C@@H]3O[C@H]6[C@H]5O4)CC(=O)C[C@@H]3[C@@H](OC)[C@@H](C[C@H](O)CN)O[C@H]3C[C@H]3O[C@@H](CC[C@@H]1O2)C[C@@H](C)C3=C` [Eribulin, eribulin] was tested, and the “Max Cytotoxicity %” value was 93.99% and the IC50 (Homo sapiens, 144 h) was 0.22 nM.

— patent US20230390411A1, “CONJUGATE AND USE THEREOF” (NANJING CHEMPION BIOTECHNOLOGY CO., LTD., priority 2021, published 2023)
